Results on 28 molecules are retold here after patent publication US20240228504A1, “SUBSTITUTED TRICYCLIC AMIDES, ANALOGUES THEREOF, AND METHODS USING SAME” (Arbutus Biopharma Corporation, priority 2020, published 2024).

The assay relates to HBV rcDNA in HepDE19 cells. The assay can be described thus: HepDE19 assay with bDNA quantitation of HBV rcDNA. In kind it is cell-based, hepatitis B virus. The note with it: Hepatitis B virus, HepDE19, HepDE19 assay, inhibition of rcDNA formation, bDNA quantitation; read-out: DE-19bDNA EC50.
On to `CN(C(=O)c1cc2c(NS(C)(=O)=O)cc(F)cc2[nH]1)[C@@H]1COCc2[nH]c(=O)c3cc(F)c(F)cc3c21` [Compound 362, (S)-N-(8,9-Difluoro-6-oxo-1,4,5,6-tetrahydro-2H-pyrano[3,4-c]isoquinolin-1-yl)-6-fluoro-N-methyl-4-(methylsulfonamido)-1H-indole-2-carboxamide], for which the EC50 was found to be 14 µM. The value for `CN(C(=O)c1cc2c(OC(F)(F)F)cccc2[nH]1)[C@@H]1COCc2[nH]c(=O)c3cc(F)c(F)cc3c21` [Compound 363, (S)-N-(8,9-Difluoro-6-oxo-1,4,5,6-tetrahydro-2H-pyrano[3,4-c]isoquinolin-1-yl)-N-methyl-4-(trifluoromethoxy)-1H-indole-2-carboxamide] was 0.02 µM; that for `COc1ccc2cc(C(=O)N(C)[C@@H]3COCc4[nH]c(=O)c5cc(F)c(F)cc5c43)[nH]c2c1` [Compound 364, (S)-N-(8,9-Difluoro-6-oxo-1,4,5,6-tetrahydro-2H-pyrano[3,4-c]isoquinolin-1-yl)-6-methoxy-N-methyl-1H-indole-2-carboxamide] was 0.03 µM.

With `CN(C(=O)c1cnc(C(F)(F)F)c(Br)c1)[C@@H]1COCc2[nH]c(=O)c3cc(F)c(F)cc3c21` [Compound 365, (S)-5-Bromo-N-(8,9-difluoro-6-oxo-1,4,5,6-tetrahydro-2H-pyrano[3,4-c]isoquinolin-1-yl)-N-methyl-6-(trifluoromethyl)nicotinamide], the EC50 was found to be 0.06 µM. The value for `CN(C(=O)c1ccc2ccc(Cl)n2c1)[C@@H]1COCc2[nH]c(=O)c3cc(F)c(F)cc3c21` [Compound 366, (S)-3-Chloro-N-(8,9-difluoro-6-oxo-1,4,5,6-tetrahydro-2H-pyrano[3,4-c]isoquinolin-1-yl)-N-methylindolizine-6-carboxamide] was 0.1 µM; that for `COc1c2ccc(C(=O)N(C)[C@@H]3COCc4[nH]c(=O)c5cc(F)c(F)cc5c43)cc2nn1C(F)F` [Compound 367, (S)-N-(8,9-Difluoro-6-oxo-1,4,5,6-tetrahydro-2H-pyrano[3,4-c]isoquinolin-1-yl)-2-(difluoromethyl)-3-methoxy-N-methyl-2H-indazole-6-carboxamide] was 4.6 µM. With `COc1c2cc(C(=O)N(C)[C@@H]3COCc4[nH]c(=O)c5cc(F)c(F)cc5c43)ccc2nn1C(F)F` [Compound 368, (S)-N-(8,9-Difluoro-6-oxo-1,4,5,6-tetrahydro-2H-pyrano[3,4-c]isoquinolin-1-yl)-2-(difluoromethyl)-3-methoxy-N-methyl-2H-indazole-5-carboxamide], the EC50 worked out at 3.4 µM. The value for `COc1n[nH]c2ccc(C(=O)N(C)[C@@H]3COCc4[nH]c(=O)c5cc(F)c(F)cc5c43)cc12` [Compound 369, (S)-N-(8,9-Difluoro-6-oxo-1,4,5,6-tetrahydro-2H-pyrano[3,4-c]isoquinolin-1-yl)-3-methoxy-N-methyl-1H-indazole-5-carboxamide] was 6.1 µM; that for `CN(C(=O)C1CN(c2csc(Cl)c2)C1)[C@@H]1COCc2[nH]c(=O)c3cc(F)c(F)cc3c21` [Compound 370, (S)-1-(5-Chlorothiophen-3-yl)-N-(8,9-difluoro-6-oxo-1,4,5,6-tetrahydro-2H-pyrano[3,4-c]isoquinolin-1-yl)-N-methylazetidine-3-carboxamide] was 0.49 µM; that for `CN(C(=O)c1cc2ccnc(Cl)c2[nH]1)[C@@H]1COCc2[nH]c(=O)c3cc(F)c(F)cc3c21` [Compound 371, (S)-7-Chloro-N-(8,9-difluoro-6-oxo-1,4,5,6-tetrahydro-2H-pyrano[3,4-c]isoquinolin-1-yl)-N-methyl-1H-pyrrolo[2,3-c]pyridine-2-carboxamide] was 0.14 µM. Regarding `CN(C(=O)c1cc2c(Cl)nccc2[nH]1)[C@@H]1COCc2[nH]c(=O)c3cc(F)c(F)cc3c21` [Compound 372, (S)-4-Chloro-N-(8,9-difluoro-6-oxo-1,4,5,6-tetrahydro-2H-pyrano[3,4-c]isoquinolin-1-yl)-N-methyl-1H-pyrrolo[3,2-c]pyridine-2-carboxamide], the EC50 was found to be 0.02 µM. The value for `CN(C(=O)c1ccn2c(Cl)ccc2c1)[C@@H]1COCc2[nH]c(=O)c3cc(F)c(F)cc3c21` [Compound 373, (S)-3-Chloro-N-(8,9-difluoro-6-oxo-1,4,5,6-tetrahydro-2H-pyrano[3,4-c]isoquinolin-1-yl)-N-methylindolizine-7-carboxamide] was 0.01 µM.

As for `CN(C(=O)c1cc2cc(C(F)F)ccn2c1)[C@@H]1COCc2[nH]c(=O)c3cc(F)c(F)cc3c21` [Compound 374, (S)-N-(8,9-Difluoro-6-oxo-1,4,5,6-tetrahydro-2H-pyrano[3,4-c]isoquinolin-1-yl)-7-(difluoromethyl)-N-methylindolizine-2-carboxamide], the EC50 is 24 µM.

Take `CN(C(=O)c1cc2ccc(C(F)F)cn2c1)[C@@H]1COCc2[nH]c(=O)c3cc(F)c(F)cc3c21` [Compound 375, (S)-N-(8,9-Difluoro-6-oxo-1,4,5,6-tetrahydro-2H-pyrano[3,4-c]isoquinolin-1-yl)-6-(difluoromethyl)-N-methylindolizine-2-carboxamide]: the EC50 was 0.33 µM.

Regarding `CN(C(=O)c1cc2cc(F)c(F)cc2n1COP(=O)(OC(C)(C)C)OC(C)(C)C)[C@@H]1COCc2[nH]c(=O)c3cc(F)c(F)cc3c21` [Compound 376, (S)-di-tert-Butyl ((2-((8,9-difluoro-6-oxo-1,4,5,6-tetrahydro-2H-pyrano[3,4-c]isoquinolin-1-yl)(methyl)carbamoyl)-5,6-difluoro-1H-indol-1-yl)methyl)phosphate], the EC50 stood at 0.01 µM.

Consider `CN(C(=O)c1cnc(C(F)(F)F)c(Cl)c1)[C@@H]1COCc2[nH]c(=O)c3cc(F)c(F)cc3c21` [Compound 377, (S)-5-Chloro-N-(8,9-difluoro-6-oxo-1,4,5,6-tetrahydro-2H-pyrano[3,4-c]isoquinolin-1-yl)-N-methyl-6-(trifluoromethyl)nicotinamide], for which the 50% effective concentration (EC50) is 0.04 µM. The same measure for `CN(C(=O)c1cc2c(Br)c(Cl)ncc2[nH]1)[C@@H]1COCc2[nH]c(=O)c3cc(F)c(F)cc3c21` [Compound 384, (S)-4-Bromo-5-chloro-N-(8,9-difluoro-6-oxo-1,4,5,6-tetrahydro-2H-pyrano[3,4-c]isoquinolin-1-yl)-N-methyl-1H-pyrrolo[2,3-c]pyridine-2-carboxamide]: 0.02 µM. The same measure for `CN(C(=O)c1cc2c(C(F)F)cccn2c1)[C@@H]1COCc2[nH]c(=O)c3cc(F)c(F)cc3c21` [Compound 407, (S)-N-(8,9-difluoro-6-oxo-1,4,5,6-tetrahydro-2H-pyrano[3,4-c]isoquinolin-1-yl)-8-(difluoromethyl)-N-methylindolizine-2-carboxamide]: 0.01 µM; for `CN(C(=O)c1ccc2c(c1)CCC2)[C@@H]1COCc2[nH]c(=O)c3cc(F)c(F)cc3c21` [Compound 408, (S)-N-(8,9-Difluoro-6-oxo-1,4,5,6-tetrahydro-2H-pyrano[3,4-c]isoquinolin-1-yl)-N-methyl-2,3-dihydro-1H-indene-5-carboxamide]: 0.04 µM; for `CN(C(=O)c1ccc2ncoc2c1)[C@@H]1COCc2[nH]c(=O)c3cc(F)c(F)cc3c21` [Compound 409, (S)-N-(8,9-Difluoro-6-oxo-1,4,5,6-tetrahydro-2H-pyrano[3,4-c]isoquinolin-1-yl)-N-methylbenzo[d]oxazole-6-carboxamide]: 2.3 µM. The same measure for `CN(C(=O)c1cc2c(Cl)nc(Cl)cc2[nH]1)[C@@H]1COCc2[nH]c(=O)c3cc(F)c(F)cc3c21` [Compound 410, (S)-4,6-Dichloro-N-(8,9-difluoro-6-oxo-1,4,5,6-tetrahydro-2H-pyrano[3,4-c]isoquinolin-1-yl)-N-methyl-1H-pyrrolo[3,2-c]pyridine-2-carboxamide]: 0.04 µM; for `CN(C(=O)c1cc2cc(F)c(F)cc2[nH]1)[C@@H]1COC(F)c2[nH]c(=O)c3cc(F)c(F)cc3c21` (stereo partly drawn) [Compound 411, 5,6-Difluoro-N-methyl-N-((1S)-4,8,9-trifluoro-6-oxo-1,4,5,6-tetrahydro-2H-pyrano[3,4-c]isoquinolin-1-yl)-1H-indole-2-carboxamide]: 0.01 µM; for `CN(C(=O)c1cnc(C(F)(F)F)c(F)c1)[C@@H]1COCc2[nH]c(=O)c3cc(F)c(F)cc3c21` [Compound 412, (S)-N-(8,9-Difluoro-6-oxo-1,4,5,6-tetrahydro-2H-pyrano[3,4-c]isoquinolin-1-yl)-5-fluoro-N-methyl-6-(trifluoromethyl)nicotinamide]: 0.03 µM. Regarding `CN(C(=O)c1ccc2c(c1)c(Cl)nn2C)[C@@H]1COCc2[nH]c(=O)c3cc(F)c(F)cc3c21` [Compound 415, (S)-3-Chloro-N-(8,9-difluoro-6-oxo-1,4,5,6-tetrahydro-2H-pyrano[3,4-c]isoquinolin-1-yl)-N,1-dimethyl-1H-indazole-5-carboxamide], the EC50 came to 0.06 µM.

Consider `CCn1nc(Cl)c2cc(C(=O)N(C)[C@@H]3COCc4[nH]c(=O)c5cc(F)c(F)cc5c43)ccc21` [Compound 416, (S)-3-Chloro-N-(8,9-difluoro-6-oxo-1,4,5,6-tetrahydro-2H-pyrano[3,4-c]isoquinolin-1-yl)-1-ethyl-N-methyl-1H-indazole-5-carboxamide], for which the EC50 was 0.08 µM.

In the case of `Cc1nn(C(F)F)c2ccc(C(=O)N(C)[C@@H]3COCc4[nH]c(=O)c5cc(F)c(F)cc5c43)cc12` [Compound 417, (S)-N-(8,9-Difluoro-6-oxo-1,4,5,6-tetrahydro-2H-pyrano[3,4-c]isoquinolin-1-yl)-1-(difluoromethyl)-N,3-dimethyl-1H-indazole-5-carboxamide], the EC50 turned out to be 0.02 µM.

For the molecule `CN(C(=O)c1ccc2ocnc2c1)[C@@H]1COCc2[nH]c(=O)c3cc(F)c(F)cc3c21` [Compound 426, (S)-N-(8,9-Difluoro-6-oxo-1,4,5,6-tetrahydro-2H-pyrano[3,4-c]isoquinolin-1-yl)-N-methylbenzo[d]oxazole-5-carboxamide], the EC50 is 0.09 µM. The value for `CN(C(=O)c1ccc2scnc2c1)[C@@H]1COCc2[nH]c(=O)c3cc(F)c(F)cc3c21` [Compound 427, (S)-N-(8,9-Difluoro-6-oxo-1,4,5,6-tetrahydro-2H-pyrano[3,4-c]isoquinolin-1-yl)-N-methylbenzo[d]thiazole-5-carboxamide] was 0.17 µM.

What is called EC50 is the concentration giving half of the maximal effect.
